According to patent US7709645B2, “Pyrrolo-pyridine kinase modulators” (SGX Pharmaceuticals, Inc., priority 2004, dated 2010):

Biological target: T1, MET kinase (Homo sapiens, UniProt P08581)
T1 construct: Sf9 insect cell culture expressing the kinase domain of human Met; 6x Histidine tag (TEV-cleavable) (cleaved yes); made in house; host or cells: Sf9 insect cells
Assay: Met Bioassay (luminescence-based enzyme assay, Kinase-Glo)
Type: biochemical
Details: 10 μM ATP
Source text: In addition to the c-Abl PK/LDH coupled assay (above), homogeneous luminescence-based inhibitor screening assays were developed for c-Abl, MET, AurA, and PDK1 kinases (among others). Each of these assays made use of an ATP depletion assay (Kinase-Glo™, Promega Corporation, Madison, Wis.) to quantitate kinase activity. The Kinase-Glo™ format uses a thermostable luciferase to generate luminescent signal from ATP remaining in solution following the kinase reaction. The luminescent signal is inversely correlated with the amount of kinase activity.
Materials: Poly Glu-Tyr (4:1) substrate (Sigma Cat# P-0275), ATP (Sigma Cat#A-3377, FW=551), HEPES buffer, pH 7.5, Bovine serum albumin (BSA) (Roche 92423420), MgCl2, Staurosporine (Streptomyces sp. Sigma Cat#85660-1MG), white Costar 384-well flat-bottom plate (VWR Cat#29444-088). MET kinase (see below), Kinase-Glo™ (Promega Cat#V6712).
Stock Solutions: 10 mg/ml poly Glu-Tyr in water, stored at −20° C.; 100 mM HEPES buffer, pH 7.5 (5 ml 1M stock+45 ml miliQH2O); 10 mM ATP (5.51 mg/ml in dH2O) stored at −20° C. (diluted 50 μl into total of 10 ml miliQH2O daily=50 μM ATP working stock); 1% BSA (1 g BSA in 100 ml 0.1M HEPES, pH 7.5, stored at −20° C.), 100 mM MgCl2; 200 μM Staurosporine, 2× Kinase-Glo™ reagent (made fresh or stored at −20° C.).
Standard Assay Setup for 384-well format (20 μl kinase reaction, 40 μl detection reaction): 10 mM MgCl2; 0.3 mg/ml poly Glu-Tyr; 0.1% BSA; 1 μl test compound (in DMSO); 0.4 μg/ml MET kinase; 10 μM ATP; 100 mM HEPES buffer. Positive controls contained DMSO with no test compound. Negative controls contained 10 μM staurosporine. The kinase reactions were initiated at time t=0 by the addition of ATP. Kinase reactions were incubated at 21° C. for 60 min, then 20 μl of Kinase-Glo™ reagent were added to each well to quench the kinase reaction and initiate the luminescence reaction. After a 20 min incubation at 21° C., the luminescence was detected in a plate-reading luminometer.
The cell pellets produced from half of a 12 L Sf9 insect cell culture expressing the kinase domain of human Met were resuspended in a buffer containing 50 mM Tris-HCl pH 7.7 and 250 mM NaCl, in a volume of approximately 40 ml per 1 L of original culture. One tablet of Roche Complete, EDTA-free protease inhibitor cocktail (Cat# 1873580) was added per 1 L of original culture. The suspension was stirred for 1 hour at 4° C. Debris was removed by centrifugation for 30 minutes at 39,800×g at 4° C. The supernatant was decanted into a 500 ml beaker and 10 ml of 50% slurry of Qiagen Ni-NTA Agarose (Cat# 30250) that had been pre-equilibrated in 50 mM Tris-HCl pH 7.8, 50 mM NaCl, 10% Glycerol, 10 mM Imidazole, and 10 mM Methionine, were added and stirred for 30 minutes at 4° C. The sample was then poured into a drip column at 4° C. and washed with 10 column volumes of 50 mM Tris-HCl pH 7.8, 500 mM NaCl, 10% Glycerol, 10 mM Imidazole, and 10 mM Methionine. The protein was eluted using a step gradient with two column volumes each of the same buffer containing 50 mM, 200 mM, and 500 mM Imidazole, sequentially. The 6× Histidine tag was cleaved overnight using 40 units of TEV protease (Invitrogen Cat#10127017) per 1 mg of protein while dialyzing in 50 mM Tris-HCl pH 7.8, 500 mM NaCl, 10% Glycerol, 10 mM Imidazole, and 10 mM Methionine at 4° C. The 6× Histidine tag was removed by passing the sample over a Pharmacia 5 ml IMAC column (Cat# 17-0409-01) charged with Nickel and equilibrated in 50 mM Tris-HCl pH 7.8, 500 mM NaCl, 10% Glycerol, 10 mM Imidazole, and 10 mM Methionine. The cleaved protein bound to the Nickel column at a low affinity and was eluted with a step gradient. The step gradient was run with 15% and then 80% of the B-side (A-side=50 mM Tris-HCl pH 7.8, 500 mM NaCl, 10% Glycerol, 10 mM Imidazole, and 10 mM Methionine; B-side=50 mM Tris-HCl pH 7.8, 500 mM NaCl, 10% Glycerol, 500 mM Imidazole, and 10 mM Methionine) for 4 column volumes each. […]

T1 sequence (P08581 1078-1345 limits assumed): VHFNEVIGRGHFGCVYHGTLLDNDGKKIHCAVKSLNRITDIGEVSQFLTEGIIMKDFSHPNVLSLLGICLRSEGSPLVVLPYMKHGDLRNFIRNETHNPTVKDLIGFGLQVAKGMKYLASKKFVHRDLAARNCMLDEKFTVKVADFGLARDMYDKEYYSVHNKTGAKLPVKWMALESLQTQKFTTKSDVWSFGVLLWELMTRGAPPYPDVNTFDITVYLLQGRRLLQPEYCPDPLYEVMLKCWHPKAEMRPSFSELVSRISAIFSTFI

Compound	IC50 [nM]
COc1ccc(-c2cnc3[nH]cc(-c4ccc(N)nc4)c3c2)cc1OC [AE56]	< 1000
COCCNc1ccc(-c2c[nH]c3ncc(-c4ccc(OC)c(OC)c4)cc23)cn1 [AE57]	1000 to 5000
